Data on 4 compounds can be found in patent publication US20050234073A1, “Methods of inhibiting inflammation” (priority 2003, published 2005).

Marks after values point to notes of the source that are not given here.

Data set [1] in a line: Hapten-induced (oxazolone) colitis. The format is in vivo, mouse. On the procedure: The hapten-induced colitis model using oxazolone (4-ethoxymethylene-2-phenyl-2-oxazolin-5-one) as the hapten was established in WT B6 or MTP^flox/floxMx1Cre mice as previously described. Briefly, 6 week-old female mice were injected intraperitoneally with vehicle or 500 μg pIpC at days 1, 3, 5 and 7 followed by application of 200 μl of 3% oxazolone (Sigma-Aldrich, St. Louis, Mo.) in 100% ethanol on the abdomen at day 8. On day 14, mice were anesthetized with tribromo-ethanol (Sigma-Aldrich) and 150 μl of 1% oxazolone in 50% ethanol administered per rectum via a 3.5F catheter. Wasting was monitored until day 18 at which time the mice were sacrificed and tissue samples collected for histological examination. Colonic tissue specimens for histological assessment of colitis were fixed in 10% buffered formalin phosphate and embedded in paraffin, cut into 5 micron thick sections and stained with hematoxylin-eosin. The stained paraffin sections were evaluated by for the following parameters of colitis on a scale of 0 to 3 according to known methods: hypervascularity, mononuclear cell infiltration, crypt hyperplasia, epithelial injury or ulceration, polymorphonuclear cell infiltration or crypt abscesses.
The effect of MTPp gene deletion on the clinicopathologic outcome of oxazolone-induced colitis was examined.

In data set [2] the target is recombinant murine CD1d, beta2m associated, purified by baculovirus expression system (mouse) (UniProt P11609). The data set is described as follows: cell-based or functional assay.
The format of data set [3] is in vivo, mouse. The method, then: αGalCer was kindly provided by Dr. Michael Brenner (Brigham and Women's Hospital, Boston, Mass.). […] Mice were sacrificed and sera from peripheral blood subjected to […] (ALT) or aminoaspartate transferase (AST) assays. The kinetic quantitative determination of ALT in serum was performed by ALT/SGPT LIQUI-UV (Stanbio Laboratory, Boeme, Tex.) according to the manufacture's instructions. Fresh liver samples were collected for macroscopic and microscopic inspection. For microscopic examination, liver tissues were immediately fixed in 10% buffered formalin phosphate and embedded in paraffin, cut into sections and stained with hematoxylin-eosin. The clinical response to a hepatocyte mediated, CD1d-dependent response in vivo was evaluated (Osman, Y. et al. Eur. J. Immunol. 30, 1919-1928 (2000)). […] The latter was evident from the absence of elevations of transaminases (FIG. 2D, panels c and d), macroscopic liver necrosis (FIG. 2E, panel d) or microscopic evidence of hepatitis (FIG. 2F, panel d) in the MTP^flox/floxMx1Cre mice that received αGalCer with prior pIpC treatment.

Data set [4] in a line: Assessment of plasma lipids and body weight after pIpC treatment. It counts as in vivo, mouse. The method, then: Female 6-8 week-old of both MTP^pflox/floxMx1Cre mice and WT B6 mice that had been injected intraperitoneally with either PBS as control or 500 μg polyinosinic-polycytidylic ribonucleic acid (pIpC, Sigma, St. Louis, Mo.) in PBS every other day for a total of four doses were sacrificed one or 10 days after the last pIpC injection at which time sera was obtained from peripheral blood. The serum was subjected to total cholesterol and triglyceride assays at the clinical laboratory of Brigham and Women's Hospital (Boston, Mass.).
To further substantiate a direct biochemical relationship between CD1d and MTP, the effects on CD1d expression and function was examined in a conditional MTP-deficient mouse model which contains a “floxed” MTPp gene (MTPp^flox/flox) that had been intercrossed with mice expressing Mx1 promoter controlled, Cre-recombinase (Raabe, M. et al. J. Clin. Invest. 103, 1287-1298 (1999); Bjorkegren, J., Beigneux, A., Bergo, M. O., Maher, J. J. & Young, S. G. J. Biol. Chem. 277, 5476-5483 (2002)). The Mx1 promoter is induced by interferon-inducing substances such as polyinosinic-polycytidylic acid (pIpC) (Raabe, M. et al. J. Clin. Invest. 103, 1287-1298 (1999); Bjorkegren, J., Beigneux, A., Bergo, M. O., Maher, J. J. & Young, S. G. J. Biol. Chem. 277, 5476-5483 (2002); Ralf, K., Schwenk, F., Aguet, M. & Rajewsky, K. Science. 269, 1427-1429 (1995)) such that treatment of MTPp^flox/floxMx1Cre mice with pIpC leads to deletion of the MTPp gene (MTPp^Δ/Δ) primarily within the liver, spleen and intestine providing a degree of tissue specificity to the gene deletion. As previously reported, treatment of 6-10 week old MTPp^flox/floxMx1Cre mice (or MTP^flox/floxMx1Cre mice) with pIpC caused progressive hepatic steatosis (1C) and decreases in serum triglyceride and cholesterol levels (Table 5) in association with decreased MTP mRNA levels as defined by RT-PCR (FIG. 1D) and protein levels (FIG. 1E) in liver and colon.

The subject of a further data set is CD1d. Description: Flow cytometric analysis of CD1d surface expression on splenocytes of pIpC treated mice. To be noted: for Mean fluorescence intensity: CD1d; for Mean fluorescence intensity / % CD1d+: splenocytes. The format is in vivo, mouse. The source says: Mouse cells were stained using the following antibodies: FITC-conjugated α-CD1d (1B1, PharMingen); PE-conjugated α-CD11c (HL3, PharMingen); FITC-conjugated α-1-A^d (AMS-32.1, PharMingen); PE-conjugated α-CD69 (H1.2F3, PharMingen); PE-conjugated α-B220 (RA3-6B2, PharMingen). Human cells were stained using: PE-conjugated α-CD83 (550634, PharMingen); FITC-conjugated α-HLA-A,B,C (557348, PharMingen); α-HLA DR,DP,DQ (32381A, PharMingen); α-CD1d (42.1 or 51.1.3); α-mouse IgG+IgM (AMI1708, Biosource, Camarillo, Calif.). Staining was performed in the presence of Via-Probe (PharMingen) and analyzed with a FACSort flow cytometer (Becton Dickinson).

The mark [5] stands for this setting: C57BL/6J mice, 1 day after treatment.
The mark [6] stands for this setting: C57BL/6J mice, 10 days after treatment.
Setting [7] is: MTPflox/floxMx1Cre mice, 1 day after treatment.
The mark [8] stands for this setting: MTPflox/floxMx1Cre mice, 10 days after treatment.

Sequence of recombinant murine CD1d, beta2m associated, purified by baculovirus expression system (mouse) (P11609 22-305): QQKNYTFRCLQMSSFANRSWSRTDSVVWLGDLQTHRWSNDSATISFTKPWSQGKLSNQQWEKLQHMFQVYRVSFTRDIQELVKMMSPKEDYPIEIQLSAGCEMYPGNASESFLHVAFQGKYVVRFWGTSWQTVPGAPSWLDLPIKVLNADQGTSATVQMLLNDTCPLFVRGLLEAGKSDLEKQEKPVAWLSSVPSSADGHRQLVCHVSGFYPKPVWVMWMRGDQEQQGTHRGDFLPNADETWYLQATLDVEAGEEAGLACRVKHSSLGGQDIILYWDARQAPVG

As to `CCOC=C1N=C(c2ccccc2)OC1=O` [oxazolone, 4-ethoxymethylene-2-phenyl-2-oxazolin-5-one], the colitis induction entry in data set [1] (MTPflox/floxMx1Cre mice without pIpC) is “severe colitis”.
“MTP purified from rat liver (from UniProt D4A1W8 22-896; P04785 20-509)”: in data set [2], the MTP-mediated PE transfer to CD1d was 0.4 to 1.6 picomoles and the fluorescence of NBD-labeled PE transferred to plate-coated CD1d came out at 5 fold.
For “polyinosinic-polycytidylic ribonucleic acid [pIpC]”, in data set [3] (mouse, in vivo), the hepatic inflammation entry is “absence of inflammation”. Further, the “colitis in response to oxazolone” value in data set [1] (MTPflox/floxMx1Cre mice pretreated with pIpC) is “little evidence of colitis”. The colitis result in data set [1] (WT B6 mice exposed to oxazolone with pIpC administration) is given as “not ameliorated”. Also, the Serum triglycerides in data set [4] (setting [5]) worked out at 88.1 ± 6.6 mg/dL; in data set [4] (setting [6]) it was 110.0 ± 11.2 mg/dL; in data set [4] (setting [7]) it was 52.0 ± 7.5 mg/dL; in data set [4] (setting [8]), 43.5 ± 7.3 mg/dL. Besides, the “Total S. Cholesterol” value in data set [4] (setting [5]) stood at 96.2 ± 12.2 mg/dL; in data set [4] (setting [6]), 127.0 ± 5.8 mg/dL; in data set [4] (setting [7]), 55.1 ± 9.7 mg/dL; in data set [4] (setting [8]) it was 49.2 ± 3.1 mg/dL. The Mean fluorescence intensity in the data set with CD1d (B6 mice) is on record as 8.0; in the data set on CD1d (MTPmx1 mice), 6.2 +/− 0.9*. The CD1d expression result in the data set on CD1d (control wild-type mice injected with pIpC) is “No reduction”. Further, the “% CD1d+” value in the data set with CD1d (B6 mice) was 42.2%; in the data set on CD1d (MTPmx1 mice), 29.9 +/− 4.7* %.
On to `CCCCCCCCCCCCCCCCCCCCCCCCCC(=O)N[C@@H](CO[C@H]1O[C@H](CO)[C@H](O)[C@H](O)[C@H]1O)[C@H](O)[C@H](O)CCCCCCCCCCCCCC` [αGalCer, α-galactosylceramide], for which, in data set [3] (wild-type C57BL/6J and MTPflox/floxMx1Cre mice, without pIpC-induced deletion), the hepatitis induction result is reported as “induced hepatitis”.
